From US11945813B2, “5-substituted 4-amino-1H-benzo[c][1,2,6]thiadiazine 2,2-dioxides and formulations and uses thereof” (Firmenich Incorporated, priority 2018, dated 2024)

Biological target: T1, T1R2/T1R3 taste receptor (Homo sapiens, UniProt Q8TE23)
T1 sequence (Q8TE23 20-839): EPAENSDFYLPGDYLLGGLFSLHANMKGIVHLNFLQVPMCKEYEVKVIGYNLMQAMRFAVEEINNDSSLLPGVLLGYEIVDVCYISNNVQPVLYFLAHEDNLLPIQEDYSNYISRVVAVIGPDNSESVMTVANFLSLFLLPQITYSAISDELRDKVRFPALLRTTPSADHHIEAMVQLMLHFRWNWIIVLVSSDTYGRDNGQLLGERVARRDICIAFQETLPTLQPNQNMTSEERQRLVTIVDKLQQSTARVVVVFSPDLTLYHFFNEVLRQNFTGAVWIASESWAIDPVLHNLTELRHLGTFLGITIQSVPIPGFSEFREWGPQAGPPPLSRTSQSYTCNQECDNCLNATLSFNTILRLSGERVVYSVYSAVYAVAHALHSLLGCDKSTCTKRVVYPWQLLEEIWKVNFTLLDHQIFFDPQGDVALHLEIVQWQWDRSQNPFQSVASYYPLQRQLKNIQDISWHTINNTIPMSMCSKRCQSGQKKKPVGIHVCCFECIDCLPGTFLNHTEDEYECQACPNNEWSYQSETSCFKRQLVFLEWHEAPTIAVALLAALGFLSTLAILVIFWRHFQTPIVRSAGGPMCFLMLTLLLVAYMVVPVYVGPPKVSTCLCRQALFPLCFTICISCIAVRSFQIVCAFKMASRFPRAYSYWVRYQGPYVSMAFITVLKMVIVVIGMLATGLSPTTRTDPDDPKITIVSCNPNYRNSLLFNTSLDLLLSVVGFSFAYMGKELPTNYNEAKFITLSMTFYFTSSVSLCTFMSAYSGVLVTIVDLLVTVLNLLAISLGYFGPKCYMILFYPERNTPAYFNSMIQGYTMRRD
T1 sequence (Q7RTX0 21-852 partner): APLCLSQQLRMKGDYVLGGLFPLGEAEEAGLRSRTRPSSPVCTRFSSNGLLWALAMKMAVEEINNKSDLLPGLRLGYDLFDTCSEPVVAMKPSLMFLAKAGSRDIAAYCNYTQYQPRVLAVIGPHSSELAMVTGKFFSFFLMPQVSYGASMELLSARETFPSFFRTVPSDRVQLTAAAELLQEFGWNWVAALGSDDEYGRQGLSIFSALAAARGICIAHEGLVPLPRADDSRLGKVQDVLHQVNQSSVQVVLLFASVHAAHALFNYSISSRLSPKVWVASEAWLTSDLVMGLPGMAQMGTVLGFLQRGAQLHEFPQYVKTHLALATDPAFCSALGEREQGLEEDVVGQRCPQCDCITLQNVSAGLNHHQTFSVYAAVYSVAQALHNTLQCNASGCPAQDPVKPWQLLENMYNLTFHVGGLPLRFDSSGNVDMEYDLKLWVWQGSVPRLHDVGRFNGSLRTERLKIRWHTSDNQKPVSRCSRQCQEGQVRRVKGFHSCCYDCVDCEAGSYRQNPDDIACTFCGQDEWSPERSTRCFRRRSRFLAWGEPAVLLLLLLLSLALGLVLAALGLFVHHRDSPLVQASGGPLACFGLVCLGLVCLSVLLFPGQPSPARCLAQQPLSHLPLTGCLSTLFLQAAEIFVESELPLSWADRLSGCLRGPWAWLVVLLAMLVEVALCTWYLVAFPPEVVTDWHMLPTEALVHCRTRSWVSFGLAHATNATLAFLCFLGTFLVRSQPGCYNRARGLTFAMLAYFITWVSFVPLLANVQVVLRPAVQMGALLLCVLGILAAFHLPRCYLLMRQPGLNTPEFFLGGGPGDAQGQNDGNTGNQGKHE
Test: Receptor-based assay: sweetener EC50 alone and with test compound (enhancement ratio)
Format: cell-based
Conditions: for Sucralose Enhancement EC50 Ratio: sweetener sucralose; for Sucrose Enhancement EC50 Ratio: sweetener sucrose; for Fructose Enhancement EC50 Ratio: sweetener fructose
Experimental: Potencies (EC50 values) for the sweeteners sucrose, sucralose, and fructose were measured against the T1R2/T1R3 taste receptor. EC50 was determined using the sweetener alone and in the presence of 3 μM, 10 μM, or 50 μM of test compound. EC50 ratios were calculated by the ratio of potency with and without the test compound. An “A” value indicates an enhancement ratio of greater than 20. A “B” value indicates an enhancement ratio from 10 to 20. A “C” value indicates an enhancement ratio greater than 1 and less than 10.

Cc1cnc(NC(C)(C)COc2cccc3c2C(N)=NS(=O)(=O)N3)nc1 [Compound 100, 4-amino-5-(2-methyl-2-((5-methylpyrimidin-2-yl)amino)propoxy)-1H-benzo[c][1,2,6]thiadiazine 2,2-dioxide]
Sucralose Enhancement EC50 Ratio (10 μM test compound): A (An “A” value indicates an enhancement ratio of greater than 20)
Sucralose Enhancement EC50 Ratio (50 μM test compound): A (An “A” value indicates an enhancement ratio of greater than 20)
Sucrose Enhancement EC50 Ratio (3 μM test compound): C (A “C” value indicates an enhancement ratio greater than 1 and less than 10)
Sucrose Enhancement EC50 Ratio (10 μM test compound): C (A “C” value indicates an enhancement ratio greater than 1 and less than 10)
Sucrose Enhancement EC50 Ratio (50 μM test compound): C (A “C” value indicates an enhancement ratio greater than 1 and less than 10)

CC(C)(COc1cccc2c1C(N)=NS(=O)(=O)N2)Nc1ccccn1 [Compound 101]
Fructose Enhancement EC50 Ratio (10 μM test compound): C (A “C” value indicates an enhancement ratio greater than 1 and less than 10)
Sucralose Enhancement EC50 Ratio (10 μM test compound): A (An “A” value indicates an enhancement ratio of greater than 20)
Sucralose Enhancement EC50 Ratio (50 μM test compound): A (An “A” value indicates an enhancement ratio of greater than 20)
Sucrose Enhancement EC50 Ratio (3 μM test compound): C (A “C” value indicates an enhancement ratio greater than 1 and less than 10)
Sucrose Enhancement EC50 Ratio (10 μM test compound): C (A “C” value indicates an enhancement ratio greater than 1 and less than 10)
Sucrose Enhancement EC50 Ratio (50 μM test compound): C (A “C” value indicates an enhancement ratio greater than 1 and less than 10)

CC(C)(COc1cccc2c1C(N)=NS(=O)(=O)N2)Nc1ncccn1 [Compound 102]
Fructose Enhancement EC50 Ratio (10 μM test compound): C (A “C” value indicates an enhancement ratio greater than 1 and less than 10)
Sucralose Enhancement EC50 Ratio (10 μM test compound): A (An “A” value indicates an enhancement ratio of greater than 20)
Sucralose Enhancement EC50 Ratio (50 μM test compound): A (An “A” value indicates an enhancement ratio of greater than 20)
Sucrose Enhancement EC50 Ratio (10 μM test compound): C (A “C” value indicates an enhancement ratio greater than 1 and less than 10)
Sucrose Enhancement EC50 Ratio (50 μM test compound): B (A “B” value indicates an enhancement ratio from 10 to 20)

Cc1cc(C)nc(NC(C)(C)COc2cccc3c2C(N)=NS(=O)(=O)N3)n1 [Compound 103]
Fructose Enhancement EC50 Ratio (10 μM test compound): C (A “C” value indicates an enhancement ratio greater than 1 and less than 10)
Fructose Enhancement EC50 Ratio (50 μM test compound): C (A “C” value indicates an enhancement ratio greater than 1 and less than 10)
Sucralose Enhancement EC50 Ratio (10 μM test compound): A (An “A” value indicates an enhancement ratio of greater than 20)
Sucralose Enhancement EC50 Ratio (50 μM test compound): A (An “A” value indicates an enhancement ratio of greater than 20)
Sucrose Enhancement EC50 Ratio (3 μM test compound): C (A “C” value indicates an enhancement ratio greater than 1 and less than 10)
Sucrose Enhancement EC50 Ratio (10 μM test compound): C (A “C” value indicates an enhancement ratio greater than 1 and less than 10)
Sucrose Enhancement EC50 Ratio (50 μM test compound): C (A “C” value indicates an enhancement ratio greater than 1 and less than 10)

NC1=NS(=O)(=O)Nc2cccc(OC[C@H]3CCCN(c4ccccn4)C3)c21 [Compound 104]
Fructose Enhancement EC50 Ratio (10 μM test compound): C (A “C” value indicates an enhancement ratio greater than 1 and less than 10)
Sucralose Enhancement EC50 Ratio (10 μM test compound): A (An “A” value indicates an enhancement ratio of greater than 20)
Sucralose Enhancement EC50 Ratio (50 μM test compound): A (An “A” value indicates an enhancement ratio of greater than 20)
Sucrose Enhancement EC50 Ratio (3 μM test compound): C (A “C” value indicates an enhancement ratio greater than 1 and less than 10)
Sucrose Enhancement EC50 Ratio (10 μM test compound): C (A “C” value indicates an enhancement ratio greater than 1 and less than 10)
Sucrose Enhancement EC50 Ratio (50 μM test compound): C (A “C” value indicates an enhancement ratio greater than 1 and less than 10)

NC1=NS(=O)(=O)Nc2cccc(OC[C@H]3CCCN(c4ncccn4)C3)c21 [Compound 105]
Fructose Enhancement EC50 Ratio (10 μM test compound): C (A “C” value indicates an enhancement ratio greater than 1 and less than 10)
Fructose Enhancement EC50 Ratio (50 μM test compound): C (A “C” value indicates an enhancement ratio greater than 1 and less than 10)
Sucralose Enhancement EC50 Ratio (10 μM test compound): A (An “A” value indicates an enhancement ratio of greater than 20)
Sucralose Enhancement EC50 Ratio (50 μM test compound): A (An “A” value indicates an enhancement ratio of greater than 20)
Sucrose Enhancement EC50 Ratio (3 μM test compound): C (A “C” value indicates an enhancement ratio greater than 1 and less than 10)
Sucrose Enhancement EC50 Ratio (10 μM test compound): C (A “C” value indicates an enhancement ratio greater than 1 and less than 10)
Sucrose Enhancement EC50 Ratio (50 μM test compound): C (A “C” value indicates an enhancement ratio greater than 1 and less than 10)

CC(C)(COc1cccc2c1C(N)=NS(=O)(=O)N2)Nc1ccnc(Cl)n1 [Compound 201, 4-amino-5-(2-((2-chloropyrimidin-4-yl)amino)-2-methylpropoxy)-1H-benzo[c][1,2,6]thiadiazine 2,2-dioxide]
Fructose Enhancement EC50 Ratio (10 μM test compound): C (A “C” value indicates an enhancement ratio greater than 1 and less than 10)
Sucralose Enhancement EC50 Ratio (50 μM test compound): A (An “A” value indicates an enhancement ratio of greater than 20)
Sucrose Enhancement EC50 Ratio (3 μM test compound): C (A “C” value indicates an enhancement ratio greater than 1 and less than 10)
Sucrose Enhancement EC50 Ratio (10 μM test compound): C (A “C” value indicates an enhancement ratio greater than 1 and less than 10)
Sucrose Enhancement EC50 Ratio (50 μM test compound): C (A “C” value indicates an enhancement ratio greater than 1 and less than 10)

CC(C)(COc1cccc2c1C(N)=NS(=O)(=O)N2)Nc1ccnc(-n2cccn2)n1 [Compound 202]
Sucrose Enhancement EC50 Ratio (50 μM test compound): C (A “C” value indicates an enhancement ratio greater than 1 and less than 10)

CC(C)(COc1cccc2c1C(N)=NS(=O)(=O)N2)Nc1ccnc(N2CCCC2)n1 [Compound 204]
Fructose Enhancement EC50 Ratio (50 μM test compound): C (A “C” value indicates an enhancement ratio greater than 1 and less than 10)
Sucralose Enhancement EC50 Ratio (10 μM test compound): A (An “A” value indicates an enhancement ratio of greater than 20)
Sucralose Enhancement EC50 Ratio (50 μM test compound): A (An “A” value indicates an enhancement ratio of greater than 20)
Sucrose Enhancement EC50 Ratio (3 μM test compound): C (A “C” value indicates an enhancement ratio greater than 1 and less than 10)
Sucrose Enhancement EC50 Ratio (10 μM test compound): C (A “C” value indicates an enhancement ratio greater than 1 and less than 10)
Sucrose Enhancement EC50 Ratio (50 μM test compound): C (A “C” value indicates an enhancement ratio greater than 1 and less than 10)

CC(C)(COc1cccc2c1C(N)=NS(=O)(=O)N2)Nc1ccnc(N2CCOCC2)n1 [Compound 205]
Fructose Enhancement EC50 Ratio (50 μM test compound): C (A “C” value indicates an enhancement ratio greater than 1 and less than 10)
Sucralose Enhancement EC50 Ratio (10 μM test compound): B (A “B” value indicates an enhancement ratio from 10 to 20)
Sucralose Enhancement EC50 Ratio (50 μM test compound): A (An “A” value indicates an enhancement ratio of greater than 20)
Sucrose Enhancement EC50 Ratio (3 μM test compound): C (A “C” value indicates an enhancement ratio greater than 1 and less than 10)
Sucrose Enhancement EC50 Ratio (10 μM test compound): C (A “C” value indicates an enhancement ratio greater than 1 and less than 10)
Sucrose Enhancement EC50 Ratio (50 μM test compound): C (A “C” value indicates an enhancement ratio greater than 1 and less than 10)
